Laboratory results reported in EP0366451A2, “The use of oxidized polyamines, especially NN'-Bis-(3-propionaldehyde)-1-4-diaminobutane (sperminedialdehyde) as immunosuppressive agents” (ORTHO PHARMACEUTICAL CORPORATION, priority 1988, dated 1990).

Tests used:
[1] = test system: Cytosolic ALDH in mouse liver; experiment: NAD-linked cytosolic ALDH assay, mouse liver; assay type: biochemical
Procedure: (§1) Cultured murine leukemic cells and livers (excised from mice immediately after cervical dislocation) were homogenized in 3 volumes of ice-cold 1.15% KCl and 1 mM EDTA. The homogenate was centrifuged at 100,000 g for 45 min and the resulting supernatant was used to measure cytosolic ALDH activity. For particulate ALDH assay, the pellet (and homogenate for total ALDH) was resuspended in homogenizing buffer and treated with 0.25% Triton X-100 for 30 min at 4°C. The solubilized preparations were centrifuged at 48,000 g for 30 min and the supernatants were drawn off for ALDH determinations.
(§2) ALDH activity was measured by monitoring the reduction of NAD or NADp for 5-6 min at […] at 37°C in DU70 spectrophotometer (Beckman). The assay mixture contained 50 mM potassium phosphate buffer, pH 7.4, 2.0 mM NAD (or NADP) and 1.0 mM EDTA. The reaction was started by adding the substrate (SDA or other aldehyde) to the prewarmed (5 min at 37°C) assay mixture containing enzyme preparation. Pyrazole (0.1 mM) was added particularly for liver enzyme, to inhibit alcohol dehydrogenase. The apparent Km and maximum velocity (Vmax) values were calculated using a Lineweaver-Burk plot based on the estimation of the slope by regression analysis. Enzyme activity was expressed as mU (nmoles/min) per mg of protein. Protein contents were determined by the Bradford method, using bovine serum albumin as the standard.

Murine bone marrow cells = experiment: Con A driven mouse bone marrow cell proliferation ([3H]-thymidine incorporation); assay type: cell-based
Procedure: Mouse spleen and bone marrow cells were incubated separately with different concentrations of spermine dialdehyde in vitro for 1 hour. Cells were washed extensively and set up in a Con A stimulated proliferation assay. A graph is depicted wherein percentage response is plotted as a function of various concentrations of spermine dialdehyde.
Mice were sacrificed by cervical dislocation and disinfected by dipping in a Dettol solution. Bone marrow cells were obtained from suitable long bones by flushing with a […] needle. Cells were then washed three times with RPMI before use.
Mouse spleen cells were cultured for 3 days in flat bottom microtiter relates at 10⁵ cells per well in the presence of […] of Con A. 3H-thymidine (0.1 microcurie/well) was added for the last 4-6 hours of the culture period. Cells were harvested as described above.
Mouse bone marrow and spleen cells were each incubated for 1 hour with different concentrations of spermine dialdehyde. Cells were then washed 3 times with RPMI and set up in a Con A driven proliferation assay. Results are depicted in Figure 2.
For [³H]-thymidine incorporation, drug or vehicle treated bone marrow or spleen cells were plated in RPMI-1640, containing 10% fetal bovine serum, 10 µM β-mercaptoethanol, 25 mM HEPES and 2 mM glutamine. Con-A (4 µg/ml and […]) was used as mitogens for bone marrow and spleen cells. […]

(Lewis x BN) F1 rats = experiment: Graft vs. host reaction in rat (popliteal lymph node study); assay type: in vivo
Procedure: (LewXBN) rats were injected i.v. daily for 8 days with different doses of spermine dialdehyde. On day 2, BN rat spleen cells were injected subcutaneously into the left foot pads of the (LewxBN)F1 rats. These rats were sacrificed in 7 days and weights of both left and right popliteal lymph nodes were removed. The difference in weight is plotted as a function of spermine dialdehyde concentrations used.
Graft vs. host reaction in rats was measured by popliteal lymph node enlargement induced by reinjection of parental spleen cells into F1 recipients. (Lewis x BN) F1 rats were divided into groups of 10 and given daily IV injections of different doses of the test compound (spermine dialdehyde) or control preparation. Two days after the first injection, they received 9 x 10⁶ spleen cells from a parental Lewis strain (0.3 ml of a […] cell/ml preparation was injected under the skin of the ventral surface of each of the recipient's right hind foot). Injection of test compound and control article continued for 6 more days. On the seventh day, rats were sacrificed by CO₂ treatment. Both left and right politeal lymph nodes were removed and cleaned of any adhering tissue. The extent of enlargement was measured by weighing both left and right lymph nodes and differences between the two were calculated.
Graft vs. host reaction was generated in the form of popliteal lymph node in F1 recipients by subcutaneous injection of parental spleen cells. Spermine aldehyde was administered intravenously starting 2 days before parental spleen cell injection and continued until the day of lymph node measurement. Increase in popliteal lymph node swelling was scored by difference in weight between test (left) and control (right) lymph node. […] This GVH reaction is a typical manifestation of MHC class II reaction involving allogenic T lymphocytes.

[2] = test system: NADP-linked cytosolic ALDH; experiment: NADP-linked cytosolic ALDH assay, L1210/CPA cells; assay type: biochemical, Murine; conditions: SDA as substrate, L1210/CPA cells
Procedure: as §1
as §2, with “standard. […]” for “standard.”

cytosolic ALDH = experiment: NAD-linked cytosolic ALDH assay, L1210/CPA cells; assay type: biochemical, Murine; conditions: as substrate, L1210/CPA cytosol
Procedure: as §1, §2

ALDH = ALDH assay in L1210/0 cells; assay type: biochemical, Murine; conditions: SDA as substrate
Procedure: as §1, §2

[3] = test system: BFU-E and CFU-GM colonies; experiment: Hemopoietic colony formation assay; assay type: cell-based, murine
Procedure: Hemopoietic colony forming cells were cultured as described in the art by Iscove & Sieber with minor modifications. SDA/DEAB treated or vehicle treated cells were added to murine hemopoietic culture mixture with erythropoietin and conditioned medium (Terry Fox Laboratories, Vancouver, Canada). The mixture was vortexed and 1-2 ml portions (1 x 10⁵ bone marrow cells) were plated in duplicate in 35 mm plastic petri dishes (lux suspension dishes, Flow Laboratories). The culture dishes were incubated in a humidified atmosphere (95% air : 5% CO₂) at 37°C. Colonies were counted on day 8 or 10 for BFU-E, CFU-GM and CFU-mix. Colony types were confirmed with Wright/Giemsa Stain.

In the case of O=CCCNCCCCNCCC=O [SDA, NN′-Bis-(3-propionaldehyde)-1-4-diaminobutane], the “specific activity of ALDH, liver compared to L1210 cells” value ([1]; SDA as substrate, per mg protein) is reported as 1.5 times, the Km ([1]; as substrate, mouse liver cytosol, NAD, ± SEM, 3-4 experiments) is reported as 48.5 µM and the “Specific (activity of ALDH)” value ([1]; as substrate, mouse liver cytosol, propionaldehyde 1.0 mM) is reported as 10.5 ± 3.2 mU/mg Protein. The “[³H]-thymidine incorporation after DEAB pretreatment” value (Murine bone marrow cells; DEAB (30 µM) pretreatment) was “higher susceptibility at lower concentrations of SDA”, the “[³H]-thymidine incorporation” value (Murine bone marrow cells; treated in PBS based medium, cultured 3 days) was “dose dependent decrease” and the ED (maximum) ((Lewis x BN) F1 rats; Rattus norvegicus, iv, Figure 4, read-out: dose required to achieve maximum suppression of GVH reaction in vivo) was 5 mg/kg. The minimal effective dose ((Lewis x BN) F1 rats; Rattus norvegicus, intravenously or subcutaneously, read-out: dose effective to suppress graft vs. host reactions) was 5 to 10 mg/kg, the “GVH reaction (popliteal lymph node swelling)” value ((Lewis x BN) F1 rats; intravenous, daily, Figure 4) was “significantly suppressed the GVH reaction” and the “activity of NADP-linked cytosolic ALDH” value [2] was 3.0-3.5 mU/mg protein. The Km (cytosolic ALDH; NAD, ± SEM, 3-4 experiments) was 41.6 µM, the “Specific (activity of ALDH)” value (cytosolic ALDH; propionaldehyde 1.0 mM) was 6.8 ± 1.6 mU/mg Protein and the “enzyme activity in L1210/0 cells” value (ALDH) was “did not exhibit any detectable enzyme activity”. The “suppression of BFU-E and CFU-GM colonies” value ([3]; 50 µM) was “almost total suppression” and the “sensitivity of myeloid colony forming cells after DEAB pretreatment” value ([3]; SDA 10-25 µM, DEAB pretreatment) was “further potentiated the sensitivity”.
